Read-outs that look alike come from different tables or passages of the source.
Assays:
[1] = system: AQP4; test: AQP4 mRNA expression in RMG cells (Example 2); assay type: cell-based
Source text: We have performed several experiments.

[2] = system: retina; test: Intraocular injection in Brown Norway rats (gain of function mutation in the MR gene): CSCR-like retinal pathology; assay type: in vivo; details: FIGS. 1 and 2
[3] = system: Kir4.1; test: Kir4.1 expression (real-time PCR, western blot) in rat RMG primary cultures and retinal explants; assay type: cell-based; details: for aldosterone-induced Kir4.1 up-regulation in presence of antagonist: 10 nM aldosterone plus 1 µM antagonist, 24 hrs
Experimental: (§1) Rat RMG cells were obtained as described (deKozak, Y., Naud, M. C., Bellot, J., Faure, J. P., and Hicks, D. (1994) Differential tumor necrosis factor expression by resident retinal cells from experimental uveitis-susceptible and -resistant rat strains. J Neuroimmunol 55, 1-9). Briefly, rats at postnatal (PN) day 17 (when RMG cells are mature) were sacrificed and eyes enucleated. Intact eyeballs were maintained in DMEM overnight at room temperature in the dark, and then incubated 45 min with 2 mg/ml trypsin/collagenase I at 37° C. The neural retinas were separated from the lens and vitreous, cut into small fragments and plated in Petri dishes containing DMEM supplemented with 10% FCS, 100 units/ml penicillin, 100 µg/ml streptomycin, and 0.2% amphotericin B. Cultures were maintained at 37° C. in a humidified atmosphere containing 5% CO2. After 5 to 6 days, the cultures were washed extensively with medium so that only a strongly adherent flat cell population remained.
(§2) Müller cells were seeded in 6-well tissue culture plates (Becton Dickinson, Le Pont de Claix, France). Rat PN17 RMG cells were maintained in their initial Petri dishes. Sub confluent (80%) cells were incubated in media supplemented with 10% steroid-free (charcoal treated) FCS for 24 hrs. Corticosteroid (Sigma-Aldrich, Saint Quentin Fallavier, France) treatments were then applied respectively for a further 24 hrs: 10 nM aldosterone, 10 nM aldosterone plus 1).IM RU38486 (GR-specific antagonist), 10 nM aldosterone plus 1 µM RU26752 (MR-specific antagonist) or 1 µM dexamethasone. The steroids were previously dissolved in 2% steroid-free FCS media containing 0.1% ethanol. Control cells were treated with 0.1% ethanol in media.
(§3) After enucleation, rat retinas were isolated immediately under aseptic conditions and cut into 4 pieces. They were then transferred onto a Cyclopore 0.2).Im polycarbonate membrane (Whatman, Maidstone, England), and flatmounted with the vitreal side up. The support membranes were placed in 6-well tissue culture plates containing 2 ml DMEM supplemented with 10% steroid-free FCS, 1% penicillin-streptomycin and 0.1% amphotericin B. Explants were treated with corticosteroids as described for cultured cells. Similarly, the dose-dependent effect of aldosterone (0.1-100 nM) was analyzed on retinal explants in separate experiments.
(§4) Total RNA was isolated from the treated RMG cells and retinal explants using RNeasy Mini Kit (Qiagen, Courtaboeuf, France). First-strand cDNA was synthesized after DNase I (Qiagen) treatment using random primers (Invitrogen) and superscript II reverse transcriptase (Invitrogen). Transcript levels of ENaC-a, Kir4.1 and AQP4 were analyzed by real-time PCR performed in 7500 Real-Time PCR System (Applied Biosystems, Foster City, Calif., USA) with either TaqMan® (Applied Biosystems) or SYBR® Green (Invitrogen, Cergy Pontoise, France) detection. The 18S was used as internal control.
(§5) Retinal explants were homogenized in Np40 buffer in the presence of protease inhibitors. The protein concentration was determined by the Bradford method. Equal amounts of protein (12 .ug) were separated on Novex® 4%-12% Tris-Glycine gel (Invitrogen), transferred to nitrocellulose, and the blots were incubated with primary antibodies at 4° C. overnight. The membranes were washed, incubated with horse radish peroxidase conjugated goat anti-rabbit IgG (1:3000, Vector, AbCys, Paris, France) for 1 hr at room temperature, and developed using ECL Plus western blotting detection reagents (GE healthcare, Orsay, France). The j3-actin was used as internal control. The following primary antibodies were used: rabbit anti-alpha ENaC (1:500, Abcam, Cambridge, Mass., USA), rabbit anti-Kir4.1 (1:400, Alomone Labs, Jerusalem, Israel), rabbit anti-AQP4 (1:750, Millipore, St Quentin en Yvelines, France) and rabbit anti-j3-actin (1:1000, Abcam)

[4] = system: AQP4; test: AQP4 expression (real-time PCR, western blot) in rat RMG primary cultures and retinal explants; assay type: cell-based; details: for aldosterone induction of AQP4 mRNA in presence of antagonist: 10 nM aldosterone plus 1 µM antagonist, 24 hrs
Experimental: as §1, §2, §3, §4, §5

[5] = system: ENaC-α; test: ENaC-α expression (real-time PCR, western blot) in rat RMG primary cultures and retinal explants; assay type: cell-based; details: for aldosterone-induced increase in ENaC-α subunit transcripts in presence of antagonist: 10 nM aldosterone plus 1 µM antagonist, 24 hrs
Experimental: as §1, §2, §3, §4, §5

[6] = system: sub retinal and/or intra retinal fluid; test: Oral eplerenone in patients with CSCR or chronic diffuse epitheliopathy; assay type: in vivo, human; details: for recurrence: at 6 months
Source text: Patients with non-resolutive or chronic diffuse epitheliopathy presenting with macular fluid accumulation have been treated with oral eplerenone, a specific MR antagonist. […] On the contrary, 4 months later and at 1 week before treatment, the amount of fluid had accumulated. […] They have a long history of recurrent CSCR on both eyes. In their left eye (OS), they present a macular edema with sub retinal fluid and retinal cysts. The left eye vision is reduced to 1/10 and the edema is chronic since more than 2 years. They have been treated with eplerenone 25 mg/day for 8 days and then 50 mg/days for 3 month. […] Moreover, vision in the left eye recovered to 6/10. No recurrence was observed on none of the eyes even at 6 months.

[7] = system: retina; test: Intravitreal spironolactone in GK diabetic rats: retinal histology; assay type: in vivo, Goto-Kakizaki (GK) rats
Experimental: Goto-Kakizaki (GK) rats have been used as model for diabetic retinopathy. GK rats (Taconic Europe, Denmark), a Wistar non-obese model of Non-Insulin Dependent type 2 Diabetes were used at different ages of hyperglycemia. Glycemia was measured using Accutrend GC and Accu-check compact equipments (Roche) and plasma glucose >250 mg/dl was considered as diabetic state. […] Controls were selected from age-matched non-diabetic rats and with plasma glucose <150 mg/dl. […] 18 months diabetic rats were treated with intravitreous injections (1 μM) at day 1,3,5 and animals were re tested for ERGs 24 hrs after each injection. 24 hrs after the third injection, animals were sacrificed and the retina were analyzed using semi-thin sections.

[8] = system: retina; test: Intravitreal spironolactone in GK diabetic rats: electroretinograms (ERG); assay type: in vivo, Goto-Kakizaki (GK) rats; details: 18 months diabetic GK rats, intravitreous 1 μM at day 1,3,5; 24 hrs after last injection, FIG. 7
Experimental: In 18 months-old GK rats, electroretinogramms were preformed (ERG).
18 months diabetic rats were treated with intravitreous injections (1 μM) at day 1,3,5 and animals were re tested for ERGs 24 hrs after each injection.

[9] = 18 months GK rats, 3 intravitreous injections 1 μM, vs vehicle, FIG. 8
[10] = GK diabetic rats, intraocular, conclusion
[11] = GK rats, 1 μM final in the vitreous, 24 hrs after injection, FIG. 6

C[C@]12C=CC(=O)C=C1CC[C@H]1[C@@H]3C[C@@H](O)[C@](O)(C(=O)CO)[C@@]3(C)C[C@H](O)[C@@]12F [triamcinolone]
expression of the water channel AQP4 [1]: reduces the expression of AQP4 | expression of the water channel AQP4 ([1]; listed as triamcinolone acetonide): same effect as a MR antagonist

C[C@]12C[C@H](O)[C@H]3[C@@H](CCC4=CC(=O)CC[C@@]43C)[C@@H]1CC[C@@H]2C(=O)CO [corticosterone]
retinal pathology after intraocular injection [2]: develop a retinal pathology very close to CSCR

CC#C[C@]1(O)CC[C@H]2[C@@H]3CCC4=CC(=O)CCC4=C3[C@@H](c3ccc(N(C)C)cc3)C[C@@]21C [RU38486]
aldosterone-induced Kir4.1 up-regulation in presence of antagonist [3]: fully efficient to reduce it | aldosterone induction of AQP4 mRNA in presence of antagonist [4]: reduces somehow | aldosterone-induced increase in ENaC-α subunit transcripts in presence of antagonist [5]: inhibited

COC(=O)[C@@H]1CC2=CC(=O)CC[C@]2(C)[C@@]23O[C@@H]2C[C@@]2(C)[C@@H](CC[C@@]24CCC(=O)O4)[C@H]13 [eplerenone, Pregn-4-ene-7,21-dicarboxylic acid, 9,11-epoxy-17-hydroxy-3-oxo-,γ-lactone, methyl ester, (7α,11α,17β)]
sub retinal fluid ([6]; FIG. 3 patient, CSCR unresolved for 4 months, 25 mg/day orally for 8 days): striking reduction | recurrence ([6]; FIG. 3 patient, treatment discontinued after 4 weeks): did not show any recurrence | sub retinal fluid ([6]; FIG. 3 patient, then 50 mg/day for 8 days, after 2 weeks of treatment): almost complete resolution | sub retinal fluid ([6]; FIG. 4 patient, chronic CSCR, 25 mg/day for 8 days then 50 mg/day, 15 days after treatment): complete resolution | macular cysts ([6]; FIG. 4 patient, chronic CSCR, 15 days after treatment): total resolution | recurrence ([6]; FIG. 4 patient, both eyes): No recurrence | vision in the left eye ([6]; FIG. 4 patient, reduced to 1/10 before treatment): 6/10 | kinetics of efficacy ([6]; patients, oral eplerenone): as early as the first week of use | regression of sub retinal and/or intra retinal fluid ([6]; patients, oral eplerenone, FIGS. 3 and 4): very rapid and efficient regression

CC(=O)S[C@@H]1CC2=CC(=O)CC[C@]2(C)[C@H]2CC[C@@]3(C)[C@@H](CC[C@@]34CCC(=O)O4)[C@H]12 [spironolactone, 17-hydroxy-7α-mercapto-3-oxo-17α-pregn-4-ene-21-carboxylic acid γ-lactone acetate]
edema in inner/outer (IS/OS) segments and outer nuclear layer (ONL) [7, 9]: decreased | vasodilation in the choriocapillaries [7, 9]: reduced | formation of outer segments [7, 10]: improves | retinal edema [7, 10]: efficiently reduces | fluid accumulation in the outer nuclear layer (photoreceptor layer) [7, 11]: have decreased | thickness of the outer retina [7, 11]: decreased | ERG b-wave after treatment compared to before treatment [8]: significantly increased

CCC[C@@H]1CC2=CC(=O)CC[C@]2(C)[C@H]2CC[C@@]3(C)[C@@H](CC[C@@]34CCC(=O)O4)[C@H]12 [RU26752]
aldosterone induction of AQP4 mRNA on co-administration of MR antagonist [1]: completely blocks the induction | aldosterone-induced Kir4.1 up-regulation in presence of antagonist [3]: weaker (or no) effect | aldosterone-induced Kir4.1 protein in presence of MR antagonist ([3]; western blot): reduced | aldosterone induction of AQP4 mRNA in presence of antagonist [4]: fully suppressed | aldosterone-induced AQP4 protein in presence of MR antagonist ([4]; western blot): blocked | aldosterone-induced increase in ENaC-α subunit transcripts in presence of antagonist [5]: inhibited | aldosterone-induced ENaC protein in presence of MR antagonist ([5]; western blot, retinal explants): not reduced
